Ends that are not written are not given here.

For one test, the target named is T1, SLA-1*04:01 (Sus scrofa, UniProt O19244). As to the kind of experiment: pSLA complex stability, scintillation proximity assay (125I-β2m dissociation). It counts as binding, swine. The following applies: SPA, 125I-β2m dissociation at 37 °C over 24 h with 200 nM unlabeled β2m, refolded overnight 18 °C with ≈50 μM peptide, average of duplicates, t½ in decimal hours. Here is the method:
(§1) Five SLA class I alleles were used: SLA-1*04:01, SLA-1*07:02, SLA-2*04:01, SLA-2*05:02 and SLA-3*04:01.
(§2) Based on the bioinformatics described above, 53 peptides (purity >85%, GenScript) were acquired for in vitro verification.
(§3) The stability of the pSLA complexes was determined in vitro using a scintillation proximity assay (SPA) employing the principle of ^125I-radiolabeled β2m dissociation as a measure of pSLA complex stability (Harndahl et al. [2011]; Parker et al. [1992b]). Briefly, denatured biotinylated recombinant SLA heavy chains were diluted in PBS/0.1% Lutrol F68 to 50 nM and refolded overnight at 18 °C with 2–10 nM ^125I-radiolabeled β2m and ≈50 μM of the peptide to be tested in streptavidin-coated scintillation 384-well FlashPlate PLUS microplates (SMP410A001PK, PerkinElmer). In case of a binding peptide, a scintillation signal was observed and the off-rate was subsequently determined by increasing the temperature to 37 °C and the addition of an excess of unlabeled β2m (final concentration 200 nM) while continuously monitoring the scintillation signal in a liquid microplate scintillation plate reader (Topcount NXT, PerkinElmer) for 24 h at 37 °C. The off-rate is equivalent to the peptide-specific dissociation rate and serves as a good measure for pSLA complex stability. The stability values reported are the averages of duplicates in half-life (t½) decimal hours.
As for KSGHPHGLLF [ID6], the “Stab. (h), measured stability (average dissociation half-life)” value (shortened to “Stab. (h), measured stability”) is 0.1 h.

RSTPAIVRWF [ID3]: the “Stab. (h), measured stability” value stood at 0.1 h.

Another test concerns SLA-1*07:02. The description is as above. The following applies: SPA, 125I-β2m dissociation at 37 °C over 24 h with 200 nM unlabeled β2m, refolded overnight 18 °C with ≈50 μM peptide, average of duplicates, t½ in decimal hours. It counts as binding, swine. Here is the method: as §1, §2, §3
With TLSNYRRSY [ID15], the “Stab. (h), measured stability” value is 0.3 h.

The next test has as its target T2, SLA-2*04:01 (Sus scrofa, UniProt Q8MHU4). The test is described as above. In kind it is binding, swine. As to conditions: SPA, 125I-β2m dissociation at 37 °C over 24 h with 200 nM unlabeled β2m, refolded overnight 18 °C with ≈50 μM peptide, average of duplicates, t½ in decimal hours. Here is the method:
as §1, §2, §3
For SSAFFLRYF [ID45], the “Stab. (h), measured stability” value came to 0.1 h.

Another test deals with T1, SLA-1*04:01. Briefly: pSLA binding affinity, modified ELISA. On the set-up: species or system swine. As to conditions: ELISA as above, only one successful affinity measurement, read-out: Aff. (nM), measured affinity (equilibrium dissociation constant). Here is the method:
as §1, §2
(§4) Binding affinity of pSLA complexes was determined in vitro using a modified enzyme-linked immunosorbent assay (ELISA) (Sylvester-Hvid et al. [2002]; Pedersen et al. [2011]). Briefly, 1–2 nM denatured biotinylated recombinant SLA heavy chains were refolded with 15 nM human β2m (hβ2m) and eight fivefold incremental concentrations of the peptide to be tested spanning from 0 to 13 μM. Following obtained equilibrium after two nights of incubation at RT, the samples were transferred to a streptavidin coated 96-well capture plate (436014, Thermo Scientific) for 1½ h of incubation. Mouse-anti-hβ2m, BBM1, and horseradish peroxidase-conjugated goat-anti-mouse IgG (A9917, Sigma-Aldrich) were used as primary and secondary detection antibodies, respectively. Washing steps were performed with 0.05% Tween 20 in PBS. The color reaction of TMB Plus2 (4395A, Kem-En-Tec Diagnostics) was stopped with equivalent amounts of H2SO4 (0.5 M, cat 30144.294, VWR International), and the plates were read at 450–650 nm using a Multiskan EX ELISA reader (Thermo). OD values were converted to measures of affinity (equilibrium dissociation constant, K D) using the prefolded biotinylated […]/HLA-A*02:01 as standard (Kast et al. [1994]), and were again converted to percentile rank scores by the same SLA-specific standard curves that are integrated in NetMHCpan. A minimum of two reliable measurements were aspired for each pSLA combination, and in most cases this was obtained. The results are presented as the range between the minimum and maximum measurements converted to rank scores.
(In general: ELISA stands for enzyme-linked immunosorbent assay.)
Turning to ALATAPDGTY [ID46], the Kd was 607 nM.

In the case of FTWYQLASY [ID13], the Kd was 92 nM.

Regarding LSASSQTEY [ID38], the Kd is 91 nM.

Consider MVNTTRVTY [ID29], for which the Kd was 206 nM.

For RTILGTNNF [ID1], the Kd was found to be 1030 nM.

With YSFPGPPFF [ID4], the Kd stood at 37 nM.

Still in this test, the particulars now being: ELISA, 1–2 nM heavy chain, 15 nM hβ2m, peptide 0 to 13 μM, two nights at RT, average of successful measurements, read-out: Aff. (nM), measured affinity (average equilibrium dissociation constant).
ASDWFAPRY [ID25]: the Kd stood at 2 nM.

For KVAHNLGFY [ID21], the Kd came to 4 nM.

In the case of KVAHNLGFYF [ID10], the Kd turned out to be 122 nM.

As for LSDSGRISY [ID19], the Kd came out at 10 nM.

Consider NISAVFQTYY [ID23], for which the Kd is 413 nM.

As for QVYERGCRWY [ID7], the Kd came out at 682 nM.

With RTAIGTPVY [ID17], the Kd turned out to be 57 nM.

For RTAPNEIAF [ID24], the Kd amounted to 4 nM.

On to TTMPSGFELY [ID43], for which the Kd was 576 nM.

A further test deals with T2, SLA-2*04:01. Briefly: pSLA binding affinity, modified ELISA. On the set-up: species or system swine. The following applies: ELISA as above, only one successful affinity measurement, read-out: Aff. (nM), measured affinity (equilibrium dissociation constant). Here is the method:
as §1, §2, §4
For ATQEWLSRMW [ID31], the Kd came to 50000 nM.

KIFRFGSHKW [ID22]: the Kd is 9 nM.

Regarding LSDSGRISY [ID19], the Kd stood at 4180 nM.

Regarding QVYERGCRWY [ID7], the Kd worked out at 209 nM.

Regarding RTAIGTPVY [ID17], the Kd was found to be 385 nM.

On to SSEGHLTSVY [ID34], for which the Kd stood at 1690 nM.

TTMPSGFELY [ID43]: the Kd amounted to 1840 nM.

Staying with this test, now noted: ELISA, 1–2 nM heavy chain, 15 nM hβ2m, peptide 0 to 13 μM, two nights at RT, average of successful measurements, read-out: Aff. (nM), measured affinity (average equilibrium dissociation constant).
For the sequence ASYVWVPLTW [ID20], the Kd stood at 17100 nM.

For the sequence FTWYQLASY [ID13], the Kd was determined as 2 nM.

FVLSWLTPW [ID28]: the Kd came out at 3 nM.

For GGNWFHLEW [ID8], the Kd is 16600 nM.

Turning to LSFSYTAQF [ID12], the Kd came out at 73 nM.

In the case of LTAALNRNRW [ID36], the Kd was 40 nM.

For MSWRYSCTRY [ID44], the Kd is 15 nM.

With NISAVFQTYY [ID23], the Kd is 862 nM.

For WGVYSAIETW [ID48], the Kd worked out at 21400 nM.

As for YAQHMVLSY [ID2], the Kd is 60 nM.

For the origin of these results see article PMC5597684, “Prediction and in vitro verification of potential CTL epitopes conserved among PRRSV-2 strains” (Immunogenetics, 2017).
